From patent US11654101B2, “Use of magnolia, juniper or violet absolute in cosmetics for depigmenting the skin” (ROBERTET S.A., priority 2017, dated 2023)

Test system: murine melanocytes B16-F10
Experiment: Tests on B16 melanocytes, dosing of the intracellular melanin
Assay type: cell-based
Conditions: B16-F10 cells incubated 24 h at 37° C.; intracellular melanin content, absorbance 405 nm
Description: […] model tests on melanin-producing cells, the murine melanocytes B16-F10, have been necessary. The decrease in the cellular tyrosinase activity, associated with a reduction of the intracellular melanin content, while preserving the survival of the cells by non-cytotoxic concentrations, have then been investigated. For this purpose, the B16-F10 cells have been seeded into 24-well plates, and incubated for 24 h at 37° C. with several concentrations of different selected raw materials. […] Afterwards, the cells are lysed, and centrifuged. In turn, the cell pellet is dissolved by a NaOH 1N solution and incubated for 1 hour at 70° C. before being deposited in a 96-well plate put in the spectrophotometer at 405 nm. Afterwards, a comparison with the absorbance of a standard melanin calibrated range allows determining the intracellular melanin content of each condition and checking on the inhibitor effect of the melanogenesis by the different raw materials.

Effective IC50: 214 ppm
SMILES: O=c1cc(CO)occ1O [Kojic acid, kojic acid]
